The source of these data is patent US7510830B2, “Cancer treatment by combination therapy” (Cancer Research Technology Limited, priority 2000, dated 2009).

Data set [1] concerns TNF production in murine leucocytes. Briefly: TNF production in cultured murine leucocytes in vitro (8 h, ELISA). The data set is classed as cell-based, mouse. The method, then: The effect of DMXAA on cultured murine leucocytes has also been investigated using LPS as a control. TNF was measured by enzyme-linked immunosorbent assay after 8 h.
Blood samples for extraction of leucocytes were taken by cardiac puncture of halothane-anaesthetised mice into 1-ml syringes containing ACD-A anticoagulant (0.1 ml). All extraction operations were carried out at 7° C. to prevent clotting. Samples were pooled and unsupplemented α-MEM was added to 30 ml and a 10-ml layer of Ficoll-Paque PLUS™ was slowly added to the bottom of the tubes. After centrifugation at 300×g for 30 min the upper layer was removed and the leucocyte layer was carefully drawn off into a fresh 50-ml centrifuge tube. The volume was adjusted to 50 ml with unsupplemented growth medium, the cells were centrifuged at 300×g, and the leucocytes were resuspended at 10^7 cells/ml in α-MEM supplemented with foetal bovine serum (10% v/v), streptomycin sulphate (100 μg/ml) and penicillin-G (100 units/ml).
Cells were added either to 24 well plates (1 ml/well; Nunc, Kamstrup, Roskilde, Denmark) or to 100 mm Petri dishes (10 ml/plate) and incubated in 5% CO2/air at 37° C. overnight. Agents (made up at twice the final concentration in growth medium) were added and plates were further incubated for 8 hours. After the appropriate incubation period of HPBL with drug in 24-well plates, supernatants were removed and either assayed immediately or stored at −20° C.
TNF standards were prepared by making serial dilutions of the TNF stock solution in supplemented culture media (concentration range 10-10,000 pg/ml). ELISA (enzyme-linked immunosorbent assay) plates were made using the OptEIA Human TNF-alpha-Set (Pharmingen, San Diego, Calif., USA). TNF standards and samples were added to the ELISA plates and the assays were carried out according to the manufacturer's directions.

For data set [2] the following is noted: cited from earlier work.
Data set [3] deals with serum TNF in C57BL mice. Briefly: In vivo serum TNF in mice with or without antibiotic pre-treatment. Also noted: species or system mouse. The method, then:
To test the hypothesis that low concentrations of LPS synergise with DMXAA for in vivo TNF production, mice were treated orally with antibiotics for […] and then treated with 25 mg/kg DMXAA. TNF levels were measured […]. C57BL mice were either untreated, or treated for 4 days prior to DMXAA with a mixture of antibiotics (cephalocin 2 g/l and neomycin 2 g/l in the drinking water). Mice received a single i.p. dose of DMXAA (25 mg/kg) and blood was collected by cardiac puncture of halothane-anaesthetised mice after 3 hours. Blood from each mouse was transferred to individual microcentrifuge tubes and allowed to clot overnight on ice before centrifugation at 2000×g for 20 minutes at 4° C. If clotting was not complete the sample was allowed to stand on ice for a further 2 hours, after which it was re-centrifuged. Serum was drawn off the top of the blood samples and stored at −20° C. until assay of TNF content. […] ELISA (enzyme-linked immunosorbent assay) plates were made using the OptEIA Human TNF-alpha-Set (Pharmingen, San Diego, Calif., USA). TNF standards and samples were added to the ELISA plates and the assays were carried out according to the manufacturer's directions.

Data set [4] relates to cancer. The note with it: humans; cited from earlier work.
In data set [5] the test system is TNF production in human peripheral blood leucocytes (HPBL). The data set is classed as cell-based. The procedure:
Partially purified buffy coats were purchased from Auckland Blood Centre and divided into 15-ml, aliquots in 50-ml centrifuge tubes (2070 Conical Tubes, Becton Dickinson Labware, N.J., USA). HPBL in tissue culture dishes (10 ml; 10^7 cells/ml) were incubated overnight in α-MEM culture medium supplemented with FCS (10% v/v), streptomycin sulphate (100 μg/ml) and penicillin-G (100 units/ml). All extraction operations were carried out at 7° C. to prevent clotting. Unsupplemented α-MEM medium was added to 30 ml and a 10-ml layer of Ficoll-Paque PLUS was slowly added to the bottom of the tubes. After centrifugation at 300 g for 30 min the upper layer was removed and the HPBL layer was carefully drawn off into a fresh 50-ml centrifuge tube. The volume was adjusted to 50 ml, the cells were centrifuged at 300 g, and HPBL were resuspended in supplemented α-MEM medium and added (1 ml/well) to 24 well plates (Nunc, Kamstrup, Roskilde, Denmark). Agents (made up at twice the final concentration) were added and plates were incubated for the appropriate times in 5% CO2air at 37° C. overnight. DMXAA sodium salt (this laboratory) was dissolved in medium and protected from light FAA (National Cancer Institute, USA) was dissolved in 5% (w/v) sodium bicarbonate and diluted with medium. Interleukin-laipha (R&D Systems, USA), okadaic acid, LPS and deacylated LPS (Sigma Chemical Co., USA) were dissolved in α-MEM, filter-sterilised and used immediately. The MEM-18 mouse anti-human CD14 IgG antibody was obtained from Sanbio bv, am Uden, Netherlands, and was freed from azide before use by ultrafiltration.
After the appropriate incubation period of HPBL with drug, supernatants were either used immediately or stored at −20° C. TNF standards were prepared by making serial dilutions of the TNF stock solution in supplemented culture media (concentration range 10-10,000 pg/ml). ELISA plates were made using the OptEIA Human TNF-alpha Set (Pharmingen, San Diego, Calif., USA). TNF standards and samples were added to the ELISA plates and the assays were carried out according to the makers' directions.

Data set [6] deals with murine tumours. As to conditions: cited from earlier work.

“Also recorded” adds a separate entry of the source. Where two headings read alike, the source gives them in different places.

With `Cc1ccc2c(=O)c3cccc(CC(=O)O)c3oc2c1C` [DMXAA, 5,6-dimethylxanthenone-4-acetic acid], the TNF production result in data set [1] (DMXAA (800 μg/ml) co-incubated with anti-CD14 antibody (10 μl/well), murine leucocytes (FIG. 7)) is listed as “high level of TNF production that was even greater than that caused by LPS”; in data set [1] (DMXAA (800 μg/ml) coincubated with dLPS (500 μg/ml), murine leucocytes (FIG. 7)) it was “significant (p<0.001) elevation of TNF production”; in data set [1] (DMXAA alone (800 μg/ml), murine leucocytes, 8 h (FIG. 7)), “did not significantly increase TNF production”; in data set [5] it was “large increase in TNF production; also recorded: induced a higher degree of TNF production”. Further, in data set [2], the water solubility entry is “highly water soluble”. For the same molecule, in data set [3] (DMXAA 25 mg/kg i.p. following antibiotic treatment, versus mice not receiving antibiotics (FIG. 8)), the “serum TNF” value is reported as “increased serum TNF but the increase was significantly smaller (p<0.001)”. For the same molecule, the “serum TNF concentrations” value in data set [3] (DMXAA 25 mg/kg single i.p. dose, mice not receiving antibiotics (FIG. 8)) was “substantially increased serum TNF concentrations”. Besides, in data set [4], the clinical anti-cancer activity entry was “marginal clinical anti-cancer activity”. In data set [5] (DMXAA added to LPS, peripheral blood monocytes), the “induction of TNF by low concentrations of LPS” value was “unexpectedly stimulated”. In data set [5] (DMXAA added to anti-CD14 antibody, peripheral blood monocytes), the “induction of TNF by antibody (MEM-18) to CD14” value is listed as “unexpectedly stimulated”. Further, the TNF induction result in data set [5] (DMXAA alone, 800 μg/ml, HPBL) was “no substantial induction of TNF; also recorded: no substantial effect”; in data set [5] (DMXAA alone, cultured HPBL, concentration not given) it was “little effect on TNF induction”. In addition, the “increase in induction of TNF compared to IL-1 alone” value in data set [5] (DMXAA coadministered with IL-1, HPBL (FIG. 4)) is recorded as “up to 56 fold”. Also, the antitumour activity result in data set [6] is recorded as “significant antitumour activity”.
As to `C=C1[C@@H](O)[C@@H]2O[C@]3(CC[C@H](/C=C/[C@@H](C)[C@@H]4CC(C)=C[C@@]5(O[C@H](C[C@@](C)(O)C(=O)O)CC[C@H]5O)O4)O3)CC[C@H]2O[C@@H]1[C@@H](O)C[C@H](C)[C@H]1O[C@@]2(CCCCO2)CC[C@H]1C` [OA, okadaic acid, reference compound], in data set [5] (OA alone at concentrations higher than 20 ng/ml, HPBL), the TNF synthesis entry is on record as “induced TNF synthesis”. In addition, the TNF induction result in data set [5] (OA alone at concentrations up to 20 ng/ml, HPBL) is “no substantial induction of TNF”.
With `CCCCCCCCCCCCCC(=O)O[C@@H]1[C@@H](C)[C@@]2(O)[C@@H](C=C(CO)C[C@]3(O)C(=O)C(C)=C[C@@H]23)[C@@H]2C(C)(C)[C@]12OC(C)=O` [PMA, phorbol-12-myristate-13-acetate, reference compound], the TNF synthesis result in data set [5] (PMA alone at concentrations higher than 20 ng/ml, HPBL) is on record as “induced TNF synthesis”. Moreover, in data set [5] (PMA alone at concentrations up to 20 ng/ml, HPBL), the TNF induction entry was “no substantial induction of TNF”.

B1: IL-1: interleukin-1 alpha, inflammatory cytokine (R&D Systems) (protein, UniProt P01583 113-271, looked up)
Interleukin-1 alpha: SAPFSFLSNVKYNFMRIIKYEFILNDALNQSIIRANDQYLTAAALHNLDEAVKFDMGAYKSSKDDAKITVILRISKTQLYVTAQDEDQPVLLKEMPEIPKTITGSETNLLFFWETHGTKNYFTSVAHPNLFIATKQDYWVCLAGGPPSITDFQILENQA
With B1, the TNF induction result in data set [5] (IL-1 alone, HPBL (FIG. 4)) is “capable of inducing TNF”.
